From patent US20170190671A1, “BIS(ARYL)CATECHOL DERIVATIVES AS HERBICIDES” (E I DU PONT DE NEMOURS AND COMPANY, priority 2014, published 2017)

Assays:
Assay in all cases: Test C preemergence
Format in all cases: in vivo
[1] = system: giant foxtail (Setaria faberii); conditions: Setaria faberi, pre-emergence, 336 h, scale 0 to 100, read-out: Plant response rating, Foxtail, Giant
How it was run: (§1)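 Seeds sown in a loam soil and sand blend were treated preemergence; plants in peat-moss/vermiculite medium were sprayed at the 1- to 4-leaf stage (2-18 cm). Chemicals were in a non-phytotoxic surfactant-containing solvent. After 13 to 15 days in a greenhouse, injury was visually rated against controls on a 0-100 scale.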

[2] = system: corn (Zea mays); conditions: Zea mays, pre-emergence, 336 h, scale 0 to 100
How it was run: as §1

[3] = system: ragweed (common ragweed, Ambrosia elatior); conditions: Ambrosia artemisiifolia, pre-emergence, 336 h, scale 0 to 100, read-out: Plant response rating, Ragweed
How it was run: as §1

[4] = system: yellow nutsedge (Cyperus esculentus); conditions: Cyperus, pre-emergence, 336 h, scale 0 to 100, read-out: Plant response rating, Nutsedge, Yellow
How it was run: as §1

[5] = system: winter wheat (Triticum aestivum); conditions: Triticum aestivum, pre-emergence, 336 h, scale 0 to 100, read-out: Plant response rating, Wheat
How it was run: as §1

[6] = system: large (Lg) crabgrass (Digitaria sanguinalis); conditions: Digitaria sanguinalis, pre-emergence, 336 h, scale 0 to 100, read-out: Plant response rating, Crabgrass, Large
How it was run: as §1

[7] = system: galium (catchweed bedstraw, Galium aparine); conditions: Galium, pre-emergence, 336 h, scale 0 to 100, read-out: Plant response rating, Galium
How it was run: as §1

[8] = system: lambsquarters (Chenopodium album); conditions: Chenopodium album, pre-emergence, 336 h, scale 0 to 100, read-out: Plant response rating, Lambsquarters
How it was run: as §1

[9] = system: velvetleaf (Abutilon theophrasti); conditions: Abutilon theophrasti, pre-emergence, scale 0 to 100, read-out: Plant response rating, Velvetleaf
How it was run: as §1

[10] = system: soybean (Glycine max); conditions: Glycine max, pre-emergence, scale 0 to 100, read-out: Plant response rating, Soybean
How it was run: as §1

[11] = system: barnyardgrass (Echinochloa crus-galli); conditions: Echinochloa crus-galli, pre-emergence, read-out: Plant response rating, Barnyardgrass
How it was run: as §1

[12] = system: waterhemp (common waterhemp, Amaranthus rudis); conditions: Amaranthus tuberculatus, pre-emergence, scale 0 to 100, read-out: Plant response rating, Waterhemp
How it was run: as §1

[13] = system: blackgrass (Alopecurus myosuroides); conditions: Alopecurus myosuroides, pre-emergence, 336 h, scale 0 to 100, read-out: Plant response rating, Blackgrass
How it was run: as §1

[14] = system: oilseed rape (Brassica napus); conditions: Brassica napus, pre-emergence, scale 0 to 100, read-out: Plant response rating, Oilseed Rape
How it was run: as §1

[15] = system: Italian ryegrass (Lolium multiflorum); conditions: Lolium multiflorum, pre-emergence, 336 h, scale 0 to 100, read-out: Plant response rating, Ryegrass, Italian
How it was run: as §1

In the case of `Fc1cccc(Oc2ncc(Cl)cn2)c1Oc1ncc(C(F)(F)F)cn1` [Compound 43, 5-chloro-2-[5-fluoro-6-[[5-(trifluoromethyl)-2-pyrimidinyl]oxy]phenoxy]pyrimidine], the pest or weed control at 31 g/ha ([1]; 31 g ai/ha, preemergence) is reported as 100%, the pest or weed control at 62 g/ha ([1]; 62 g ai/ha, preemergence) is reported as 100% and the pest or weed control at 125 g/ha ([1]; 125 g ai/ha, preemergence) is reported as 100%. The pest or weed control at 16 g/ha ([1]; Preemergence, 16 g ai/ha) was 95%, the Corn plant response rating (crop injury, 0 = no effect, 100 = complete kill) at 31 g/ha ([2]; 31 g ai/ha, preemergence) was 20% and the Corn plant response rating (crop injury, 0 = no effect, 100 = complete kill) at 62 g/ha ([2]; 62 g ai/ha, preemergence) was 65%. It also gave a Corn plant response rating (crop injury, 0 = no effect, 100 = complete kill) at 125 g/ha ([2]; 125 g ai/ha, preemergence) of 90%, a Corn plant response rating (crop injury, 0 = no effect, 100 = complete kill) at 16 g/ha ([2]; Preemergence, 16 g ai/ha) of 20% and a pest or weed control at 31 g/ha ([3]; 31 g ai/ha, preemergence) of 80%. The pest or weed control at 62 g/ha ([3]; 62 g ai/ha, preemergence) was 100%, the pest or weed control at 125 g/ha ([3]; 125 g ai/ha, preemergence) was 90% and the pest or weed control at 16 g/ha ([3]; Preemergence, 16 g ai/ha) was 35%. The pest or weed control at 31 g/ha ([4]; 31 g ai/ha, preemergence) was 0%, the pest or weed control at 62 g/ha ([4]; 62 g ai/ha, preemergence) was 35% and the pest or weed control at 125 g/ha ([4]; 125 g ai/ha, preemergence) was 60%. The pest or weed control at 16 g/ha ([4]; Preemergence, 16 g ai/ha) was 100%, the plant injury at 31 g/ha ([5]; 31 g ai/ha, preemergence) was 25% and the plant injury at 62 g/ha ([5]; 62 g ai/ha, preemergence) was 40%. The plant injury at 125 g/ha ([5]; 125 g ai/ha, preemergence) was 90%, the plant injury at 16 g/ha ([5]; Preemergence, 16 g ai/ha) was 5% and the pest or weed control at 31 g/ha ([6]; 31 g ai/ha, preemergence) was 100%. For the same compound, the pest or weed control at 62 g/ha ([6]; 62 g ai/ha, preemergence) was 100%, the pest or weed control at 125 g/ha ([6]; 125 g ai/ha, preemergence) was 100% and the pest or weed control at 16 g/ha ([6]; Preemergence, 16 g ai/ha) was 100%. For the same compound, the pest or weed control at 31 g/ha ([7]; 31 g ai/ha, preemergence) was 95%, the pest or weed control at 62 g/ha ([7]; 62 g ai/ha, preemergence) was 100% and the pest or weed control at 125 g/ha ([7]; 125 g ai/ha, preemergence) was 100%. It also gave a pest or weed control at 16 g/ha ([7]; Preemergence, 16 g ai/ha) of 95%, a pest or weed control at 31 g/ha ([8]; 31 g ai/ha, preemergence) of 100% and a pest or weed control at 62 g/ha ([8]; 62 g ai/ha, preemergence) of 100%. The pest or weed control at 125 g/ha ([8]; 125 g ai/ha, preemergence) was 100%, the pest or weed control at 16 g/ha ([8]; Preemergence, 16 g ai/ha) was 100% and the pest or weed control at 31 g/ha ([9]; 31 g ai/ha, preemergence) was 100%. It also gave a pest or weed control at 62 g/ha ([9]; 62 g ai/ha, preemergence) of 100%, a pest or weed control at 125 g/ha ([9]; 125 g ai/ha, preemergence) of 100% and a pest or weed control at 16 g/ha ([9]; Preemergence, 16 g ai/ha) of 100%. It also gave a plant injury at 31 g/ha ([10]; 31 g ai/ha, preemergence) of 45%, a plant injury at 62 g/ha ([10]; 62 g ai/ha, preemergence) of 75% and a plant injury at 125 g/ha ([10]; 125 g ai/ha, preemergence) of 90%. The plant injury at 16 g/ha ([10]; Preemergence, 16 g ai/ha) was 30%, the pest or weed control at 31 g/ha ([11]; 31 g ai/ha, preemergence, scale 0 to 100) was 85% and the pest or weed control at 62 g/ha ([11]; 62 g ai/ha, preemergence, scale 0 to 100) was 100%. The pest or weed control at 125 g/ha ([11]; 125 g ai/ha, preemergence, scale 0 to 100) was 100%, the pest or weed control at 16 g/ha ([11]; Preemergence, 16 g ai/ha, scale 0 to 100 (0 no effect, 100 complete control)) was 60% and the pest or weed control at 31 g/ha ([12]; 31 g ai/ha, preemergence) was 100%. It also gave a pest or weed control at 62 g/ha ([12]; 62 g ai/ha, preemergence) of 100%, a pest or weed control at 125 g/ha ([12]; 125 g ai/ha, preemergence) of 100% and a pest or weed control at 16 g/ha ([12]; Preemergence, 16 g ai/ha) of 85%. It also gave a pest or weed control at 31 g/ha ([13]; 31 g ai/ha, preemergence) of 50%, a pest or weed control at 62 g/ha ([13]; 62 g ai/ha, preemergence) of 90% and a pest or weed control at 125 g/ha ([13]; 125 g ai/ha, preemergence) of 95%. The pest or weed control at 16 g/ha ([13]; Preemergence, 16 g ai/ha) was 40%, the plant injury at 31 g/ha ([14]; 31 g ai/ha, preemergence) was 100% and the plant injury at 62 g/ha ([14]; 62 g ai/ha, preemergence) was 100%. It also gave a plant injury at 125 g/ha ([14]; 125 g ai/ha, preemergence) of 100%, a plant injury at 16 g/ha ([14]; Preemergence, 16 g ai/ha) of 95% and a pest or weed control at 31 g/ha ([15]; 31 g ai/ha, preemergence) of 50%. The pest or weed control at 62 g/ha ([15]; 62 g ai/ha, preemergence) was 85%, the pest or weed control at 125 g/ha ([15]; 125 g ai/ha, preemergence) was 95% and the pest or weed control at 16 g/ha ([15]; Preemergence, 16 g ai/ha) was 5%.
